Literature values, collected in PMC5688156, “The natural product carolacton inhibits folate-dependent C1 metabolism by targeting FolD/MTHFD” (Nature Communications, 2017).

System: human cells
Set-up: method as in PMID 9765352, PMID 9533527, PMID 9067281
Settings: poor activity; cited from earlier work

Nc1nc2c(c(=O)[nH]1)N1C(=O)N(c3ccc(C(=O)N[C@@H](CCC(=O)O)C(=O)O)cc3)CC1CN2 (stereo partly shown) [LY345899]
IC50: 128 µM
